What was measured:
[1] = biological target: Sodium-dependent serotonin transporter (Homo sapiens) (UniProt P31645); settings: Compound concentration 10.0 uM
[2] = biological target: Serine/threonine-protein kinase Nek7 (Homo sapiens) (UniProt Q8TDX7); settings: Compound concentration 1000.0 nM
[3] = biological target: cGMP-dependent protein kinase 1 (Homo sapiens) (UniProt Q13976); settings: Compound concentration 1000.0 nM
[4] = biological target: Serine/threonine-protein kinase 32A (Homo sapiens) (UniProt Q8WU08); settings: Compound concentration 1000.0 nM
[5] = biological target: Glycogen synthase kinase-3 alpha (Homo sapiens) (UniProt P49840); settings: Compound concentration 1000.0 nM
[6] = biological target: Myosin-IIIb (Homo sapiens) (UniProt Q8WXR4); settings: Compound concentration 1000.0 nM
[7] = biological target: Serine/threonine-protein kinase SBK1 (Homo sapiens) (UniProt Q52WX2); settings: Compound concentration 1000.0 nM
[8] = biological target: Mitogen-activated protein kinase 1 (Homo sapiens) (UniProt P28482); settings: Compound concentration 1000.0 nM
[9] = biological target: Ankyrin repeat and protein kinase domain-containing protein 1 (Homo sapiens) (UniProt Q8NFD2); settings: Compound concentration 1000.0 nM
[10] = biological target: Serine/threonine-protein kinase Nek2 (Homo sapiens) (UniProt P51955); settings: Compound concentration 1000.0 nM
[11] = biological target: Calcium/calmodulin-dependent protein kinase type 1B (Homo sapiens) (UniProt Q6P2M8); settings: Compound concentration 1000.0 nM
[12] = tested on: ALK tyrosine kinase receptor (Homo sapiens), Q9UM73 [C1156Y]; settings: Compound concentration 1000.0 nM
[13] = biological target: Glucocorticoid receptor (Homo sapiens) (UniProt P04150); assay: GR (h) Eurofins-Cerep binding assay; design: ligand concentration 1.5 nM; settings: filed as agonist, Compound concentration 10.0 uM
[14] = biological target: Phosphatidylinositol 4-phosphate 5-kinase type-1 alpha (Homo sapiens) (UniProt Q99755); settings: Compound concentration 1000.0 nM
[15] = biological target: Homeodomain-interacting protein kinase 1 (Homo sapiens) (UniProt Q86Z02); settings: Compound concentration 1000.0 nM
[16] = biological target: Rho-associated protein kinase 2 (Homo sapiens) (UniProt O75116); settings: Compound concentration 1000.0 nM
[17] = biological target: Tyrosine-protein kinase CSK (Homo sapiens) (UniProt P41240); settings: Compound concentration 1000.0 nM
[18] = biological target: Serine/threonine-protein kinase RIO1 (Homo sapiens) (UniProt Q9BRS2); settings: Compound concentration 1000.0 nM
[19] = tested on: Phosphatidylinositol 4,5-bisphosphate 3-kinase catalytic subunit alpha isoform (Homo sapiens), P42336 [Q546K]; settings: Compound concentration 1000.0 nM
[20] = biological target: Protein kinase C theta type (Homo sapiens) (UniProt Q04759); settings: Compound concentration 1000.0 nM
[21] = biological target: Acetylcholinesterase (Homo sapiens) (UniProt P22303); assay: Acetylcholinesterase (h) Eurofins-Cerep enzyme and uptake assay; settings: Compound concentration 10.0 uM
[22] = biological target: Platelet-derived growth factor receptor alpha (Homo sapiens) (UniProt P16234); settings: Compound concentration 1000.0 nM
[23] = biological target: Serine/threonine-protein kinase 3 (Homo sapiens) (UniProt Q13188); settings: Compound concentration 1000.0 nM
[24] = biological target: Casein kinase I isoform delta (Homo sapiens) (UniProt P48730); settings: Compound concentration 1000.0 nM
[25] = biological target: Calcitonin-gene-related peptide receptor, CALCRL/RAMP1 (Homo sapiens) (UniProt O60894+Q16602); assay: CGRP (h) Eurofins-Cerep binding assay; assay type: protein-complex assay; design: ligand concentration 0.03 nM; settings: filed as agonist, Compound concentration 10.0 uM
[26] = biological target: Serine/threonine-protein kinase Nek1 (Homo sapiens) (UniProt Q96PY6); settings: Compound concentration 1000.0 nM
[27] = biological target: Mitogen-activated protein kinase kinase kinase kinase 4 (Homo sapiens) (UniProt O95819); settings: Compound concentration 1000.0 nM
[28] = biological target: Ephrin type-A receptor 4 (Homo sapiens) (UniProt P54764); settings: Compound concentration 1000.0 nM
[29] = biological target: Serine/threonine-protein kinase 17B (Homo sapiens) (UniProt O94768); settings: Compound concentration 1000.0 nM
[30] = biological target: Mitotic checkpoint serine/threonine-protein kinase BUB1 (Homo sapiens) (UniProt O43683); settings: Compound concentration 1000.0 nM
[31] = biological target: Cyclin-dependent kinase-like 2 (Homo sapiens) (UniProt Q92772); settings: Compound concentration 1000.0 nM
[32] = biological target: Interleukin-1 receptor-associated kinase 3 (Homo sapiens) (UniProt Q9Y616); settings: Compound concentration 1000.0 nM
[33] = biological target: Dual specificity mitogen-activated protein kinase kinase 7 (Homo sapiens) (UniProt O14733); settings: Compound concentration 1000.0 nM
[34] = biological target: T1, Alpha-2B adrenergic receptor (Homo sapiens) (UniProt P18089); settings: Compound concentration 10.0 uM
T1 sequence (whole entry): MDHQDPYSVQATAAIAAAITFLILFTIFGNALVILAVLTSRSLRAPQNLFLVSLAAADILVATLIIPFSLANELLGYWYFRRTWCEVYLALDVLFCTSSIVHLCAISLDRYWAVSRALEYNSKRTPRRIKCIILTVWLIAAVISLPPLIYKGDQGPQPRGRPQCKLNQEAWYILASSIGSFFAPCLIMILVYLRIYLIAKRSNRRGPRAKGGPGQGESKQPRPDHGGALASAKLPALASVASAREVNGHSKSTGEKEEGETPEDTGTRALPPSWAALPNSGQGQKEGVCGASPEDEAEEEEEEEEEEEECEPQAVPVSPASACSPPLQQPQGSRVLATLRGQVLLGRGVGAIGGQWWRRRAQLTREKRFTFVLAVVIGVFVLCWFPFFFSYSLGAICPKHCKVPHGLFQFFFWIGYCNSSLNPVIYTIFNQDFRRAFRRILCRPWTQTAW

[35] = biological target: Receptor-type tyrosine-protein kinase FLT3 (Homo sapiens) (UniProt P36888); settings: Compound concentration 1000.0 nM
[36] = biological target: Cyclin-dependent kinase-like 5 (Homo sapiens) (UniProt O76039); settings: Compound concentration 1000.0 nM
[37] = biological target: Receptor-interacting serine/threonine-protein kinase 4 (Homo sapiens) (UniProt P57078); settings: Compound concentration 1000.0 nM
[38] = biological target: Ephrin type-B receptor 3 (Homo sapiens) (UniProt P54753); settings: Compound concentration 1000.0 nM
[39] = biological target: Homeodomain-interacting protein kinase 3 (Homo sapiens) (UniProt Q9H422); settings: Compound concentration 1000.0 nM

Sequence of Calcium/calmodulin-dependent protein kinase type 1B (Homo sapiens) (Q6P2M8 whole entry): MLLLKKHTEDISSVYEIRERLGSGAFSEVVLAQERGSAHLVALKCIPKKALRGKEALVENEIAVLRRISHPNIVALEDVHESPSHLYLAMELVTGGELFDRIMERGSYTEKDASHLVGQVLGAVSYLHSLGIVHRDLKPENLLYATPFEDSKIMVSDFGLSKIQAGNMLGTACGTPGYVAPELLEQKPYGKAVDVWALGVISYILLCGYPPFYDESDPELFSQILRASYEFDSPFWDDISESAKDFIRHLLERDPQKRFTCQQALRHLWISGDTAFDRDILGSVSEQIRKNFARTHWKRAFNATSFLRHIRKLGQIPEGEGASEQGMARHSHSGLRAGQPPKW
Sequence of Ankyrin repeat and protein kinase domain-containing protein 1 (Homo sapiens) (Q8NFD2 whole entry, the tested form may be a part): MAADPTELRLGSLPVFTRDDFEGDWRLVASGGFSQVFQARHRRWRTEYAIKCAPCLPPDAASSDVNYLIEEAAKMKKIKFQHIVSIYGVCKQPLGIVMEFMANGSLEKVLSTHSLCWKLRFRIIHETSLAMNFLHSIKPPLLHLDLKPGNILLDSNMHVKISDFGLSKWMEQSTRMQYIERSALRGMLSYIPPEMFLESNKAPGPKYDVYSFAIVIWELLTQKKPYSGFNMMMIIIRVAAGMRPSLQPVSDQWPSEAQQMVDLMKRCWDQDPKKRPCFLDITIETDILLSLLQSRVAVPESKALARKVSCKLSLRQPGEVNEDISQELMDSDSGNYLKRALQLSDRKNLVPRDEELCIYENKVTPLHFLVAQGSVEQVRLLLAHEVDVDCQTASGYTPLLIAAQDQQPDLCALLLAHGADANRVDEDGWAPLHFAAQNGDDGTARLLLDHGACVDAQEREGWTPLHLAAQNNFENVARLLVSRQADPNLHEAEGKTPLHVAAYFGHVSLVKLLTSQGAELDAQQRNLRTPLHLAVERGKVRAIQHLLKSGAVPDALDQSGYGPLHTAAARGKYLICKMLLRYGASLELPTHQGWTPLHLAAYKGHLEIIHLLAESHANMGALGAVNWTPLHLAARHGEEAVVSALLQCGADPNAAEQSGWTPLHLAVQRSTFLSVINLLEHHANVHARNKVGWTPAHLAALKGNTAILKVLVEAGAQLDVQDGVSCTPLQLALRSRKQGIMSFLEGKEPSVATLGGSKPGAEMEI
Sequence of Serine/threonine-protein kinase 17B (Homo sapiens) (O94768 whole entry): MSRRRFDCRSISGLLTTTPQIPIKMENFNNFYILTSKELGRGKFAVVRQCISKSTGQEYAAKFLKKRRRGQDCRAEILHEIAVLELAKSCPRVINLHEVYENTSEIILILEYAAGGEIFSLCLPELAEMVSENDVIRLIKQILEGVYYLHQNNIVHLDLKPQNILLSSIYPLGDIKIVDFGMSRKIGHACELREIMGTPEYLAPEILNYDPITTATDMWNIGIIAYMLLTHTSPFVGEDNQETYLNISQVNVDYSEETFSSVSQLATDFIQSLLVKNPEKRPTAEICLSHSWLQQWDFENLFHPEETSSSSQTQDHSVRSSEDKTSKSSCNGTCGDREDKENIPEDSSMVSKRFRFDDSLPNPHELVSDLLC
Sequence of Interleukin-1 receptor-associated kinase 3 (Homo sapiens) (Q9Y616 whole entry): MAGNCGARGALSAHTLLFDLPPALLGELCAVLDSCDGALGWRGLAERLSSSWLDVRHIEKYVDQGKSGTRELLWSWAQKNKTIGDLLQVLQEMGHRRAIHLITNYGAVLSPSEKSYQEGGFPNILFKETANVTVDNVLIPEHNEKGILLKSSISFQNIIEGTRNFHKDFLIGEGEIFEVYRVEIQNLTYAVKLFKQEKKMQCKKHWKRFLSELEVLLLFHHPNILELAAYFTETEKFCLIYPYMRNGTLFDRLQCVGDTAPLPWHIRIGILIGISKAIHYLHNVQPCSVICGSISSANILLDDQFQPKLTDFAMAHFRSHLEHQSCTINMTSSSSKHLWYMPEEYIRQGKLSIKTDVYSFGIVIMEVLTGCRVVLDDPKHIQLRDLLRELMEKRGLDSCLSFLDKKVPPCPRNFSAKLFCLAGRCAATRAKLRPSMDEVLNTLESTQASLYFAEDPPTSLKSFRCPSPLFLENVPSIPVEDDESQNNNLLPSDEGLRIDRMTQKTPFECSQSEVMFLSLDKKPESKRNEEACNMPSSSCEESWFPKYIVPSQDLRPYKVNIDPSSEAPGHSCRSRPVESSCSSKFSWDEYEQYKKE
Sequence of Serine/threonine-protein kinase Nek7 (Homo sapiens) (Q8TDX7 whole entry, looked up): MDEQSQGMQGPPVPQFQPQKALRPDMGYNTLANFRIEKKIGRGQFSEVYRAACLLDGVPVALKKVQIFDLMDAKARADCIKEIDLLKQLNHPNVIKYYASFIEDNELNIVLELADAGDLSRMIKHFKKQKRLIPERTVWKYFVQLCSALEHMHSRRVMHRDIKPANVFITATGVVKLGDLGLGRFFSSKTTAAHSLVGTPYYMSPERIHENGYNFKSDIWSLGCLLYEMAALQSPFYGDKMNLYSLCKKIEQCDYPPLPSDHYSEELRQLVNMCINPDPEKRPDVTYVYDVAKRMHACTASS
Sequence of Rho-associated protein kinase 2 (Homo sapiens) (O75116 whole entry, looked up): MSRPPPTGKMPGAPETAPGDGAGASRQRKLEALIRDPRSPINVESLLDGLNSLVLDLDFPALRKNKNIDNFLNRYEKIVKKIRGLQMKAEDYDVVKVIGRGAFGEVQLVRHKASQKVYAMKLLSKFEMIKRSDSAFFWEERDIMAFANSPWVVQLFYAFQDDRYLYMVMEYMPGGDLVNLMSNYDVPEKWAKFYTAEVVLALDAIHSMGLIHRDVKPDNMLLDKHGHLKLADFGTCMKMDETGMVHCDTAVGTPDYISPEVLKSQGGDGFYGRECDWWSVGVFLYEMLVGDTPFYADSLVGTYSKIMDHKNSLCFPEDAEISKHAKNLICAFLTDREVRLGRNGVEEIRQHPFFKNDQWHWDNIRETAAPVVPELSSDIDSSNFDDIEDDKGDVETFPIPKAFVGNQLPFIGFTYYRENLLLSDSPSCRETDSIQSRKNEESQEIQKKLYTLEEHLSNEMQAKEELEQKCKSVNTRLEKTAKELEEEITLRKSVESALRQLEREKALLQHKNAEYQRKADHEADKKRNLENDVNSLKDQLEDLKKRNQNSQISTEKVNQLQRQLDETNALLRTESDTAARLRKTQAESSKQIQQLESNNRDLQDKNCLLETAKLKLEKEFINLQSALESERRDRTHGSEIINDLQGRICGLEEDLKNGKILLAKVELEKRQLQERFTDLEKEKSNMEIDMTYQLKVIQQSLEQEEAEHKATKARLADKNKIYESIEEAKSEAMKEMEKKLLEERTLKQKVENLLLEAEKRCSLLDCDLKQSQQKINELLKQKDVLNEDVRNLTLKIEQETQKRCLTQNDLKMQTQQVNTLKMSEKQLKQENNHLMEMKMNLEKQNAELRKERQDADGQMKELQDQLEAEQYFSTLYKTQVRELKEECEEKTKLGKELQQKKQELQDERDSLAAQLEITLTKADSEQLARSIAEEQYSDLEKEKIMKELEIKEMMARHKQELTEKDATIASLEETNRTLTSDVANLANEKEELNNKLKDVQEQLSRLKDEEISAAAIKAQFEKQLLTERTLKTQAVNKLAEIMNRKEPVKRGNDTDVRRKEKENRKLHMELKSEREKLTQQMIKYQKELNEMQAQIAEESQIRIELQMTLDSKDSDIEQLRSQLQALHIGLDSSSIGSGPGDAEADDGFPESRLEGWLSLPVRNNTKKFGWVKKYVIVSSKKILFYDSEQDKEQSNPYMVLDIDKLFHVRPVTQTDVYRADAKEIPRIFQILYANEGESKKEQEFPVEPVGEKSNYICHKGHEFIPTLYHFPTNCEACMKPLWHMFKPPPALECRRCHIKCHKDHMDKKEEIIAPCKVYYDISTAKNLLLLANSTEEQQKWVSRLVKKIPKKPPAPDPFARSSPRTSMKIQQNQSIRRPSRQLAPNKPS
Sequence of Platelet-derived growth factor receptor alpha (Homo sapiens) (P16234 whole entry): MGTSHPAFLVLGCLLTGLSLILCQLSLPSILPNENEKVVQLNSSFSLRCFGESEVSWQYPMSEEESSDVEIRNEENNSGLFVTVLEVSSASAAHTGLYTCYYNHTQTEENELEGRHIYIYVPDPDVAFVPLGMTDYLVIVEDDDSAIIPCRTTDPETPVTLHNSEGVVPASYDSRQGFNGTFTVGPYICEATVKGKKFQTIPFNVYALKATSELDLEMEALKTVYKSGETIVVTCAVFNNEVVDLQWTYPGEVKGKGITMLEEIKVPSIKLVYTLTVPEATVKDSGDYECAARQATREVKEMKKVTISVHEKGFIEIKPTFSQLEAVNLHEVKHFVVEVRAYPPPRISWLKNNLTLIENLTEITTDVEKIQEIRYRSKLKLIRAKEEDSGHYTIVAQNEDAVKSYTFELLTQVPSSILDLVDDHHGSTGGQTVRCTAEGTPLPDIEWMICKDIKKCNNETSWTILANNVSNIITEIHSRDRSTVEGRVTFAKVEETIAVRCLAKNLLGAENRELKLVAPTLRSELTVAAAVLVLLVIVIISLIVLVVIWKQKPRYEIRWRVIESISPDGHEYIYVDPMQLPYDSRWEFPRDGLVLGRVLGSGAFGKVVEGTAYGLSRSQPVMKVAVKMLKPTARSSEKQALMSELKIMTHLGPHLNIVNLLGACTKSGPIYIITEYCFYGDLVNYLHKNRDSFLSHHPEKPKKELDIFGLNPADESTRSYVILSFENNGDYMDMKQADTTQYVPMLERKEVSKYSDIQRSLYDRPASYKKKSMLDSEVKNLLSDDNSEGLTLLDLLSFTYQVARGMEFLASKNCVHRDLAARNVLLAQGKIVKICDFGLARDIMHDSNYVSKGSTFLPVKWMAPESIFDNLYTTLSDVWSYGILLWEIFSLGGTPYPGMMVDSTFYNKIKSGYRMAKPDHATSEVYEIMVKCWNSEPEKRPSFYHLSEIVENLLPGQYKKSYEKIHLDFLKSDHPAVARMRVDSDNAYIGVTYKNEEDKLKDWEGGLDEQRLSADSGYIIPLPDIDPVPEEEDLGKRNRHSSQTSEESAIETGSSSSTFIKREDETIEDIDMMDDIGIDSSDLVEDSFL

Compound	inhibition [1] [%]	residual activity [2] [%]	residual activity [3] [%]	residual activity [4] [%]	residual activity [5] [%]	residual activity [6] [%]	residual activity [7] [%]	residual activity [8] [%]	residual activity [9] [%]	residual activity [10] [%]	residual activity [11] [%]	residual activity [12] [%]	% Inhibition of Control Specific Binding (Mean n=2) [13] [%]	residual activity [14] [%]	residual activity [15] [%]	residual activity [16] [%]	residual activity [17] [%]	residual activity [18] [%]	residual activity [19] [%]	residual activity [20] [%]	other results
CO[C@H]1CC[C@H](CNc2ccc(S(=O)(=O)NC(=O)c3ccc(N4CCN(CC5=C(c6ccc(Cl)cc6)CC(C)(C)CC5)CC4)cc3Oc3cnc4[nH]ccc4c3)cc2[N+](=O)[O-])CC1 [A-1211212]	25.1	82	92	99	100	69	100	84	81	100	81	100	4.6	86	61	100	76	100	100	89	% Inhibition of Control Values (Mean n=2) [21]: 3.2%; residual activity [22]: 100%; residual activity [23]: 85%; residual activity [24]: 93%; % Inhibition of Control Specific Binding (Mean n=2) [25]: -8%; residual activity [26]: 77%; residual activity [27]: 100%; residual activity [28]: 88%; residual activity [29]: 91%; residual activity [30]: 73%; residual activity [31]: 100%; residual activity [32]: 100%; residual activity [33]: 100%; inhibition [34]: 33%; residual activity [35]: 100%; residual activity [36]: 74%; residual activity [37]: 65%; residual activity [38]: 94%; residual activity [39]: 100%
O=C(NS(=O)(=O)c1ccc(NCC2CCOCC2)c([N+](=O)[O-])c1)c1ccc(N2CCN(Cc3ccc(C(F)(F)F)cc3-c3ccc(Cl)cc3)CC2)cc1Oc1cnc2[nH]ccc2c1 [A-1210227]	-8.19	97	96	99	100	100	100	87	77	100	0	100	-9.4	93	84	100	87	100	100	100	% Inhibition of Control Values (Mean n=2) [21]: 11%; residual activity [22]: 100%; residual activity [23]: 100%; residual activity [24]: 80%; % Inhibition of Control Specific Binding (Mean n=2) [25]: -57.7%; residual activity [26]: 99%; residual activity [27]: 95%; residual activity [28]: 100%; residual activity [29]: 100%; residual activity [30]: 100%; residual activity [31]: 100%; residual activity [32]: 100%; residual activity [33]: 100%; inhibition [34]: 15.6%; residual activity [35]: 80%; residual activity [36]: 74%; residual activity [37]: 75%; residual activity [38]: 100%; residual activity [39]: 100%

Reference: ChEMBL document CHEMBL4507310, “Data for DCP probe A-1211212” (2021)
